The test system of experiment [1] is BT-474. Put plainly: relative IC50 (midpoint of fitted logistic curve, plateau may be below 50% inhibition; CellTiter-Glo viability); higher = less potent. The following applies: 72 h. The procedure: (§1)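 FIMM FO2B library drugs were plated at 5 concentrations spanning a 10,000-fold range in 384-well plates. Cells were incubated for 72 h at 37 °C and viability was read by CellTiter-Glo, normalised to DMSO (0% inhibition) and 100 µM benzethonium chloride (100% inhibition). IC50 values come from logistic dose-response fits (Breeze pipeline). Tamoxifen-resistant lines and the 'in 1µM tamoxifen' parental arms were tested in medium with 1 µM 4-OH-tamoxifen.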
A general note: ATP-based viability assays read luminescence as a measure of living cells.

The subject of experiment [2] is ZR-75-1. The description is as above. Particulars: 72 h. The procedure: as §1
Experiment [3] has as its system MCF-7. The experiment is described as above. The following applies: 72 h. The procedure: as §1
Experiment [4] deals with MCF-7 Tam1. Described as above. Particulars: 4-OH-tamoxifen in medium 1 µM; 72 h. The procedure:
as §1

The subject of experiment [5] is BT-474 Tam1. Described as above. Particulars: 4-OH-tamoxifen in medium 1 µM; 72 h. The procedure:
as §1

Experiment [6] deals with T-47D Tam1. Described as above. Particulars: 4-OH-tamoxifen in medium 1 µM; 72 h. The procedure: as §1
The test system of experiment [7] is T-47D. The description is as above. Particulars: 4-OH-tamoxifen in medium 1 µM; 72 h. The procedure: as §1
In experiment [8] the test system is ZR-75-1 Tam1. The experiment is described as above. The following applies: 4-OH-tamoxifen in medium 1 µM; 72 h. The procedure: as §1
Experiment [9] deals with ZR-75-1 Tam2. The experiment is described as above. The following applies: 4-OH-tamoxifen in medium 1 µM; 72 h. The procedure: as §1
Experiment [10] deals with BT-474. Put plainly: drug sensitivity score (DSS) (DSS (dimensionless)); higher = more sensitive; extreme values may be limits of the assay. The following applies: 72 h. The procedure: (§2)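 FIMM FO2B library drugs were tested at 5 concentrations (10,000-fold range) for 72 h, with CellTiter-Glo viability normalised to DMSO and benzethonium chloride controls. The Drug Sensitivity Score (DSS) is computed from the fitted logistic dose-response curve (area-based; 0 = inactive). Resistant lines and the 'in 1µM tamoxifen' arms were tested in 1 µM 4-OH-tamoxifen.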

Experiment [11] concerns BT-474 Tam2. Described as above. The following applies: 4-OH-tamoxifen in medium 1 µM; 72 h. The procedure:
as §2

Experiment [12] deals with ZR-75-1. The experiment is described as above. The following applies: 72 h. The procedure:
as §2

The test system of experiment [13] is MCF-7. Described as above. Particulars: 72 h. The procedure: as §2
In experiment [14] the test system is MCF-7 Tam1. The description is as above. Particulars: 4-OH-tamoxifen in medium 1 µM; 72 h. The procedure:
as §2

Experiment [15] concerns BT-474 Tam1. The experiment is described as above. The following applies: 4-OH-tamoxifen in medium 1 µM; 72 h. The procedure:
as §2

Experiment [16] concerns T-47D Tam1. The description is as above. The following applies: 4-OH-tamoxifen in medium 1 µM; 72 h. The procedure: as §2
For experiment [17], the system named is T-47D. The description is as above. The following applies: 72 h. The procedure: as §2
Experiment [18] concerns ZR-75-1 Tam1. The experiment is described as above. Particulars: 4-OH-tamoxifen in medium 1 µM; 72 h. The procedure: as §2
For experiment [19], the system named is T-47D Tam2. The experiment is described as above. Particulars: 4-OH-tamoxifen in medium 1 µM; 72 h. The procedure: as §2
Experiment [20] relates to ZR-75-1 Tam2. The experiment is described as above. Particulars: 4-OH-tamoxifen in medium 1 µM; 72 h. The procedure: as §2
Experiment [21] relates to BT-474 Tam2. Put plainly: relative IC50 (midpoint of fitted logistic curve, plateau may be below 50% inhibition; CellTiter-Glo viability); higher = less potent. The following applies: 4-OH-tamoxifen in medium 1 µM; 72 h. The procedure: as §1

Structures are written as SMILES. Some results are limits rather than exact numbers.

What is called relative IC50 is the concentration halfway between the upper and lower plateau of the fitted curve. As for `Cc1ccc(NC(=O)c2ccc(CN3CCN(C)CC3)cc2)cc1Nc1nccc(-c2cccnc2)n1` [Imatinib], the “relative IC50” value in experiment [1] (4-OH-tamoxifen in medium 0 µM) is > 10 µM; in experiment [2] (4-OH-tamoxifen in medium 0 µM), > 10 µM; in experiment [3] (4-OH-tamoxifen in medium 0 µM), > 10 µM; in experiment [4] it was > 10 µM; in experiment [5], 4.03 µM; in experiment [6], > 10 µM. The “relative IC50” value in experiment [7], in experiment [8] and in experiment [9] was > 10 µM each time. For the same molecule, the drug sensitivity score stood at 0 in [10] (4-OH-tamoxifen in medium 0 µM); 0.471 in experiment [10] (4-OH-tamoxifen in medium 1 µM); 1.21 in [11]; 0 in experiment [12] (4-OH-tamoxifen in medium 0 µM); 0.933 in experiment [12] (4-OH-tamoxifen in medium 1 µM); 0 in [13] (4-OH-tamoxifen in medium 0 µM). The drug sensitivity score in experiment [13] (4-OH-tamoxifen in medium 1 µM) was found to be 0; in experiment [14] it was 0; in experiment [15], 1.97; in [16] it was 0; in experiment [17] (4-OH-tamoxifen in medium 0 µM), 0; in experiment [17] (4-OH-tamoxifen in medium 1 µM), 0. Also, the figures for the drug sensitivity score in experiment [18], in [19] and in experiment [20] were 0, 0.454 and 0, respectively.

Turning to `C[C@]1(O)C[C@@H](c2nc(-c3ccc4ccc(-c5ccccc5)nc4c3)c3c(N)nccn32)C1` [Linsitinib (OSI-906)], the “relative IC50” value in experiment [1] (4-OH-tamoxifen in medium 0 µM) is > 10 µM; in experiment [21], > 10 µM; in [2] (4-OH-tamoxifen in medium 0 µM) it was > 10 µM; in [3] (4-OH-tamoxifen in medium 0 µM), 1.7 µM; in experiment [3] (4-OH-tamoxifen in medium 1 µM) it was 1.62 µM; in experiment [4], 1.17 µM. The “relative IC50” value in [5] is > 10 µM; in experiment [6], 1.82 µM; in [7], 1.87 µM. In addition, the drug sensitivity score in experiment [10] (4-OH-tamoxifen in medium 0 µM) turned out to be 0; in experiment [10] (4-OH-tamoxifen in medium 1 µM) it was 0.462; in [11], 0; in experiment [12] (4-OH-tamoxifen in medium 0 µM), 0; in experiment [12] (4-OH-tamoxifen in medium 1 µM), 1.21; in experiment [13] (4-OH-tamoxifen in medium 0 µM), 4.58. The drug sensitivity score in experiment [13] (4-OH-tamoxifen in medium 1 µM) worked out at 5.68; in experiment [14], 3.94; in experiment [15], 0; in experiment [16], 7.18; in experiment [17] (4-OH-tamoxifen in medium 0 µM), 2.48; in [17] (4-OH-tamoxifen in medium 1 µM) it was 2.45. For the same molecule, the drug sensitivity score in [18] came out at 0.0832; in experiment [19], 1.19; in experiment [20] it was 0.681.

As to `NC(=O)c1cccc2cn(-c3ccc([C@@H]4CCCNC4)cc3)nc12` [MK-4827], the “relative IC50” value was > 10 µM in experiment [1] (4-OH-tamoxifen in medium 0 µM); > 10 µM in experiment [1] (4-OH-tamoxifen in medium 1 µM); > 10 µM in experiment [2] (4-OH-tamoxifen in medium 1 µM); > 10 µM in experiment [4]; 3.06 µM in experiment [5]; > 10 µM in [6]. Besides, the “relative IC50” value in experiment [8] and in [9] was > 10 µM throughout. Further, the drug sensitivity score in [10] (4-OH-tamoxifen in medium 0 µM) came to 0; in [10] (4-OH-tamoxifen in medium 1 µM), 0; in [11], 0.615; in experiment [12] (4-OH-tamoxifen in medium 0 µM), 0.0039; in experiment [12] (4-OH-tamoxifen in medium 1 µM) it was 0; in experiment [13] (4-OH-tamoxifen in medium 0 µM), 0.385. The drug sensitivity score in experiment [13] (4-OH-tamoxifen in medium 1 µM) is 1.11; in experiment [14], 0; in experiment [15], 2.21; in experiment [16], 0; in experiment [17] (4-OH-tamoxifen in medium 0 µM), 0.34; in experiment [17] (4-OH-tamoxifen in medium 1 µM), 1.04. Besides, the drug sensitivity score in experiment [18] was 0; in experiment [19] it was 0.764; in [20], 0.

As for `O=C1c2c(O)ccc(O)c2C(=O)c2c(NCCNCCO)ccc(NCCNCCO)c21` [Mitoxantrone], the “relative IC50” value in experiment [1] (4-OH-tamoxifen in medium 0 µM), in [1] (4-OH-tamoxifen in medium 1 µM), in experiment [21], in experiment [3] (4-OH-tamoxifen in medium 0 µM), in experiment [3] (4-OH-tamoxifen in medium 1 µM) and in experiment [4] was > 1 µM each time. The “relative IC50” value is > 1 µM in experiment [5], 0.0368 µM in [6] and > 1 µM in [7]. The drug sensitivity score in [10] (4-OH-tamoxifen in medium 0 µM) amounted to 0; in [10] (4-OH-tamoxifen in medium 1 µM) it was 0; in experiment [11] it was 0; in experiment [12] (4-OH-tamoxifen in medium 0 µM), 3.03; in [12] (4-OH-tamoxifen in medium 1 µM), 2.35; in experiment [13] (4-OH-tamoxifen in medium 0 µM), 0. In addition, the drug sensitivity score turned out to be 0 in [13] (4-OH-tamoxifen in medium 1 µM); 0 in [14]; 0 in experiment [15]; 7.08 in experiment [16]; 2.79 in [17] (4-OH-tamoxifen in medium 0 µM); 0 in experiment [17] (4-OH-tamoxifen in medium 1 µM). Further, the drug sensitivity score in experiment [18] turned out to be 1.67; in [19] it was 1.21; in experiment [20], 4.66.
